Columns and labels:
[1] = target: T1, Calpain-1 catalytic subunit (Homo sapiens, UniProt P07384); experiment: (§1) Inhibitory activity of compound against recombinant human Calpain 1
T1 sequence (P07384 whole entry): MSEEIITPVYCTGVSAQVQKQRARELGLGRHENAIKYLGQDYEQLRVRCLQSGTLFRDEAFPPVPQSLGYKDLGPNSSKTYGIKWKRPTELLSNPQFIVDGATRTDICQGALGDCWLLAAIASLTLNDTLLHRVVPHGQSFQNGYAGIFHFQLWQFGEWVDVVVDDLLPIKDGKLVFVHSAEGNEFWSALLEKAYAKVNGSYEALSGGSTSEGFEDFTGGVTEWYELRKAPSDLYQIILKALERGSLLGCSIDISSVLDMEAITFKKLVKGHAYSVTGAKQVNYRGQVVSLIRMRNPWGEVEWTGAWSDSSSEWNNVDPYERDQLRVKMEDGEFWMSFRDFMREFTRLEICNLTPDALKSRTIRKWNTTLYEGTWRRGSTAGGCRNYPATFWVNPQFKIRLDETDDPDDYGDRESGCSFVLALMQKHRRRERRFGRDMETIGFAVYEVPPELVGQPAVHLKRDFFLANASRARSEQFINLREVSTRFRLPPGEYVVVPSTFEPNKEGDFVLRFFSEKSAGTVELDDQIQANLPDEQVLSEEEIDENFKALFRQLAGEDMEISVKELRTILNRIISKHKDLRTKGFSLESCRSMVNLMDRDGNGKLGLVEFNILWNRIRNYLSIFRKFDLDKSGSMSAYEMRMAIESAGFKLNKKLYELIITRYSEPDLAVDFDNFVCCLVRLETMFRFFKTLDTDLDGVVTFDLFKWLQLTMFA

[2] = target: T2, Calpain-1 catalytic subunit (Homo sapiens) (UniProt P07384); experiment: as §1
T2 sequence (whole entry): T1 sequence (P07384 whole entry)

Structure (SMILES)	IC50 [1] [nM]	K obs / 1 [2] [M⁻¹ s⁻¹]
CCNC(=O)C(=O)C(CC)NC(=O)[C@H](CC(C)C)NC(=O)OCc1ccccc1 (stereo partly specified)	240	
CC(C)C[C@H](CC(=O)C1c2ccccc2Oc2ccccc21)C(=O)N[C@H](C=O)CC(C)C	25	
CCNC(=O)C(CC(C)C)NC(=O)[C@@H](CC(=O)C1c2ccccc2Oc2ccccc21)CC(C)C (stereo partly specified)	130	
CC(C)C[C@H](CC(=O)C(c1ccccc1)c1ccccc1)C(=O)N[C@H](C=O)CC(C)C	50	
CC(C)C[C@H](CC(=O)CCCCc1ccccc1)C(=O)N[C@H](C=O)CC(C)C	138	
CC(C)C[C@H](CC(=O)C1c2ccccc2Oc2ccccc21)C(=O)NC(Cc1ccccc1)C(=O)CF (stereo partly specified)		76000

Reference: ChEMBL document CHEMBL1151519, “Xanthene derived potent nonpeptidic inhibitors of recombinant human calpain I” (Bioorg Med Chem Lett, 1996)
